Data on four molecules can be found in patent US20230115817A1, “CRYSTAL OF PDE3/PDE4 DUAL INHIBITOR AND USE THEREOF” (Chia Tai Tianqing Pharmaceutical Group Co., Ltd., priority 2020, published 2023).

Structures are written as SMILES.

Data set [1] is described as follows: Hygroscopicity study (dynamic vapor sorption). It is filed as physicochemical. The note with it: 25° C., 0%-90%-0% RH. As to the method: Example 7: Hygroscopicity Study of Crystalline Form B of Compound of Formula (I)
Instrument model: SMS DVS Advantage
Test conditions: the sample (10-20 mg, the crystalline form B prepared in Example 3) was placed in DVS sample tray for testing.
Balancing: dm/dt=0.01%/min (shortest: 10 min, longest: 180 min)
Drying: drying at 0% RH for 120 min
RH (%) test gradient: 10%

A short description of data set [2]: Solid stability testing of crystalline form B (HPLC). It is filed as physicochemical. The procedure: Example 6: Stability Study of Solid Crystalline Form B of the Compound of Formula (I) High Performance Liquid Chromatography (HPLC)
The chromatographic conditions of the HPLC method are seen in table below: Chromatographic column: Zorbax SB C-18, 4.6 mm×150 mm, 5 μm (PDS-HPLC-007)
Mobile phase A: 0.1% TFA in water
Preparation of sample: the sample was dissolved in a mixed solvent of acetonitrile and water (acetonitrile:water=50:50 (v/v))
The stability of the compound in the following conditions was examined, and samples were taken at different time points to detect the content. About 5 mg of the crystalline form B of the compound of formula (I) was accurately weighted in duplicate, transferred to a dry and clean glass bottle, spread into a thin layer as test samples, and placed in experimental conditions of influential factors ((60° C.), (relative humidity 92.5%), illumination (total illumination of 1.2×106 Lux·hr/near UV energy of 200 w·hr/m2), (40° C., relative humidity 75%), or (60° C., relative humidity 75%)). The samples were covered with aluminum foils having holes, and thus completely exposed to the conditions. Sampling analysis was performed at 5 days, 10 days, 1 month, 2 months and 3 months. The samples were completely exposed to illumination (visible light of 1200000 Lux, UV of 200 W) at room temperature.

For data set [3], the system named is cigarette smoke-induced rat acute lung injury model. In words: Pharmacodynamic study in cigarette smoke-induced rat acute lung injury model. It is filed as in vivo, Sprague-Dawley rats. To be noted: atomization 0.05 and 0.15 mg/ml, 30 min daily. The procedure:
Experimental Example 5: Pharmacodynamic Study in Cigarette Smoke-Induced Rat Acute Lung Injury Model
Male Sprague-Dawley rats (supplied by Shanghai SLAC Laboratory Animal Co., Ltd.), SPF grade, approximately 200 g.
1. Animals were randomly divided into 6 groups according to body weight after arrival and a one-week acclimation;
2. On days 1-3 of the experiment, the corresponding compound of each group was atomized for 30 min. The animals in the model group and the treatment groups were exposed to cigarette smoke for 1 h, and after a 4-h interval, the animals were exposed to cigarette smoke again for 1 h. Cigarette smoke was given twice daily for 3 consecutive days. The control group animals were exposed to room air;
3. On day 4 of the experiment, the corresponding compound of each group was atomized for 30 min, and then the animals in the model group and the treatment groups were given the atomized 150 ng/mL LPS for 15 min by inhalation. After 3 h (from the time starting atomization), the animals were exposed to cigarette smoke for 1 h, and then the lung function (Penh and F) of the animals was examined; bronchoalveolar lavage fluid was collected for cell counting after the animals were euthanized with CO2. […]

The nature of data set [4]: Pharmacokinetic study in beagle dogs. It is filed as in vivo. The procedure: Experimental Example 3: Pharmacokinetic Study in Beagle Dogs
In this study, male beagle dogs were selected as test animals, and LC-MS/MS was used for quantitatively measuring the drug concentration in plasma of beagle dogs at different time points after intravenous injection or intragastric administration of the compound of formula (I) so as to evaluate the pharmacokinetics of the compound of formula (I) in beagle dogs.
The clear solution of the compound of formula (I) was injected into two beagle dogs of 10-12 kg via the cephalic vein or saphenous vein, and the clear solution of the compound of formula (I) was administered intragastrically to two beagle dogs of 10-12 kg (fasted overnight). The animals were all subjected to a blood collection of approximately 500 μL each time from peripheral veins at 0.0333, 0.0833, 0.25, 0.5, 1, 2, 4, 6, 8 and 24 h post-dose, and the blood was transferred into commercial centrifuge tubes containing 0.85-1.15 mg of K2 EDTA.2H2O anticoagulant, and plasma was separated by centrifugation at 3000 g for 10 min at 4° C. The plasma concentration was measured by LC-MS/MS, and the relevant pharmacokinetic parameters were calculated using pharmacokinetic software WinNonlin™ Version 6.3 (Pharsight, Mountain View, Calif.) using non-compartmental model linear-log trapezoidal method.

The conditions of data set [5]: in vivo; cited from earlier work.
For data set [6] the following is noted: cited from earlier work.
The subject of the next data set is PDE4. The note with it: cited from earlier work.
Setting [7] is: intragastric administration 3 mg/kg.
Where [8] appears, read: intravenous injection 0.5 mg/kg.

As to `CCOc1cc2c(cc1OC)-c1c/c(=N\c3c(C)cc(C)cc3C)n(CCNC(=O)c3c(O)nnn3C)c(=O)n1CC2`, the “Hygroscopicity (DVS, in words)” value in data set [1] is “low hygroscopicity”. The Total impurities % was 0.10% in data set [2] (40° C.-75% RH-1 month); 0.08% in data set [2] (40° C.-75% RH-2 months); 0.09% in data set [2] (40° C.-75% RH-3 months); 0.10% in data set [2] (40° C.-75% RH-10 days); 0.10% in data set [2] (60° C.-75% RH-1 month); 0.10% in data set [2] (60° C.-75% RH-10 days). For the same molecule, the Total impurities % in data set [2] (60° C.-5 days) turned out to be 0.10%; in data set [2] (60° C.-10 days), 0.11%; in data set [2] (92.5% RH-5 days) it was 0.11%; in data set [2] (92.5% RH-10 days), 0.10%; in data set [2] (Day 0) it was 0.11%; in data set [2] (Illumination (1.2×106 Lux·hr, near UV 200 w·hr/m2)), 0.10%. Moreover, the Total impurities % in data set [2] (In the dark) is 0.11%. For the same molecule, the “Solid stability (in words)” value in data set [2] (high temperature, high humidity or illumination) is given as “good stability”.
`CCOc1cc2c(cc1OC)-c1c/c(=N\c3c(C)cc(C)cc3C)n(CCNC(=O)c3c(O)nnn3C)c(=O)n1CC2` [Compound of formula (I)]: in data set [3], the “Airway resistance index Penh (Mch challenge)” value is recorded as “reduce” and the “Total number of white blood cells in BALF” value is reported as “reduce”. Further, in data set [4] (setting [7]), the “Area under plasma concentration-time curve (0-inf)” value was 0.123 µM·h, the Peak concentration is 59.4 nM and the Time to peak is 0.6 h. Also, in data set [4] (setting [8]), the “Area under plasma concentration-time curve (0-inf)” value turned out to be 0.21 µM·h, the Half-life is 18 min and the Plasma clearance stood at 70.3 mL/min/kg. Moreover, the bioavailability (commonly dose-corrected exposure relative to a reference, in per cent) in data set [4] (male, dog, plasma, po, intragastric administration 3 mg/kg) stood at 7.5%.
Take `COc1cc2c(cc1OC)-c1c/c(=N\c3c(C)cc(C)cc3C)n(CCNC(N)=O)c(=O)n1CC2` [RPL554]: the “Plasma clearance (in words)” value in data set [5] is “high plasma clearance”. For the same molecule, the “Solubility (in words)” value in data set [6] is “poor solubility”. Further, the “PDE4 inhibitory activity (in words)” value in the data set on PDE4 is on record as “unsatisfactory”.
In the case of `COc1cc2c(cc1OC)-c1cc(Oc3c(C(C)C)cccc3C(C)C)nc(=O)n1CC2` [RPL565], in data set [5], the “Plasma clearance (in words)” value was “high plasma clearance”. Also, the “Solubility (in words)” value in data set [6] was “poor solubility”. The “PDE4 inhibitory activity (in words)” value with PDE4 was “unsatisfactory”.
